Common to all, as to test: AK assay 384-well format, Prestwick library screening
In one assay the test system is E. faecium. Format: cell-based, Enterococcus faecium. The conditions noted are these: Enterococcus faecium, 3 h.
A further assay deals with E. cloacae. Format: cell-based, Enterobacter cloacae. Particulars: Enterobacter cloacae, 3 h.
The subject of assay [1] is S. aureus strain USA300-0114. Format: cell-based, Staphylococcus aureus. The conditions noted are these: Staphylococcus aureus, USA300, 3 h.
In assay [2] the test system is A. baumannii strain 98-37-09. The format is cell-based, Acinetobacter baumannii. Particulars: Acinetobacter baumannii, 983709, 3 h.
The subject of another assay is K. pneumoniae. Format: cell-based, Klebsiella pneumoniae. The conditions noted are these: Klebsiella pneumoniae, 3 h.
The subject of a further assay is P. aeruginosa. Format: cell-based, Pseudomonas aeruginosa. The conditions noted are these: Pseudomonas aeruginosa, 3 h.
Another assay deals with E. coli. The format is cell-based, Escherichia coli. Particulars: Escherichia coli, 3 h.

Structures are written as SMILES. Structures can show the parent of a compound that is named as a salt. Where two headings read alike, the source gives them in different places.

Take `C=C1C/C(=C/C)C(=O)O[C@@H]2CCN3CC=C(COC(=O)[C@]1(C)O)[C@H]23` [Seneciphylline]: the fold induction at 50 µM worked out at 0.9 in the assay on E. faecium (planktonic E. faecium, 50 μM final drug concentration, […], read-out: AK-based Prestwick Library Screening Results, E. faecium (increase in extracellular AK activity)); 1.2 with E. cloacae (planktonic E. cloacae, 50 μM final drug concentration, […], read-out: AK-based Prestwick Library Screening Results, E. cloacae (increase in extracellular AK activity)); 0.8 in assay [1] (planktonic S. aureus, 50 μM final drug concentration, […], read-out: AK-based Prestwick Library Screening Results, S. aureus (increase in extracellular AK activity)); 0.8 in assay [2] (planktonic A. baumannii, 50 μM final drug concentration, […], read-out: AK-based Prestwick Library Screening Results, A. baumannii (increase in extracellular AK activity)); 0.7 in the assay on K. pneumoniae (planktonic K. pneumoniae, 50 μM final drug concentration, […], read-out: AK-based Prestwick Library Screening Results, K. pneumoniae (increase in extracellular AK activity)); 0.8 in the assay with P. aeruginosa (planktonic P. aeruginosa, 50 μM final drug concentration, […], read-out: AK-based Prestwick Library Screening Results, P. aeruginosa (increase in extracellular AK activity)). The fold induction at 50 µM in the assay on E. coli (planktonic E. coli, 50 μM final drug concentration, […], read-out: AK-based Prestwick Library Screening Results, E. coli (increase in extracellular AK activity)) amounted to 0.9.
Regarding `NCCc1c[nH]c2ccc(O)cc12` [Serotonin hydrochloride], the fold induction at 50 µM in the assay on E. faecium (planktonic E. faecium, 50 μM final drug concentration, 384-well, […], read-out: AK-based Prestwick Library Screening Results: E. faecium (increase in extracellular AK activity)) turned out to be 0.9; in the assay with E. cloacae (planktonic E. cloacae, 50 μM final drug concentration, 384-well, […], read-out: AK-based Prestwick Library Screening Results: E. cloacae (increase in extracellular AK activity)), 0.6; in assay [1] (planktonic S. aureus, 50 μM final drug concentration, 384-well, […], read-out: AK-based Prestwick Library Screening Results: S. aureus (increase in extracellular AK activity)) it was 0.6; in assay [2] (planktonic A. baumannii, 50 μM final drug concentration, 384-well, […], read-out: AK-based Prestwick Library Screening Results: A. baumannii (increase in extracellular AK activity)), 0.6; in the assay with K. pneumoniae (planktonic K. pneumoniae, 50 μM final drug concentration, 384-well, […], read-out: AK-based Prestwick Library Screening Results: K. pneumoniae (increase in extracellular AK activity)), 0.6; in the assay on P. aeruginosa (planktonic P. aeruginosa, 50 μM final drug concentration, 384-well, […], read-out: AK-based Prestwick Library Screening Results: P. aeruginosa (increase in extracellular AK activity)), 0.6. Also, the fold induction at 50 µM with E. coli (planktonic E. coli, 50 μM final drug concentration, 384-well, cutoff for positive-scoring molecules 3-fold increase, read-out: AK-based Prestwick Library Screening Results: E. coli (increase in extracellular AK activity)) was found to be 0.8.
Consider `Clc1ccc(C(Cn2ccnc2)OCc2csc3c(Cl)cccc23)c(Cl)c1` (stereo not shown) [Sertaconazole nitrate], for which the fold induction at 50 µM in the assay on E. faecium (50 μM final drug concentration, cutoff for positive-scoring molecules 3-fold increase, read-out: AK-based Prestwick Library Screening Results, E. faecium (fold increase in extracellular AK activity)) came to 2.8; in the assay on E. cloacae (50 μM final drug concentration, cutoff for positive-scoring molecules 3-fold increase, read-out: AK-based Prestwick Library Screening Results, E. cloacae (fold increase in extracellular AK activity)), 0.4; in assay [1] (50 μM final drug concentration, cutoff for positive-scoring molecules 3-fold increase, read-out: AK-based Prestwick Library Screening Results, S. aureus (fold increase in extracellular AK activity)), 0.7; in assay [2] (50 μM final drug concentration, cutoff for positive-scoring molecules 3-fold increase, read-out: AK-based Prestwick Library Screening Results, A. baumannii (fold increase in extracellular AK activity)), 2.4; in the assay with K. pneumoniae (50 μM final drug concentration, cutoff for positive-scoring molecules 3-fold increase, read-out: AK-based Prestwick Library Screening Results, K. pneumoniae (fold increase in extracellular AK activity)) it was 0.7; with P. aeruginosa (50 μM final drug concentration, cutoff for positive-scoring molecules 3-fold increase, read-out: AK-based Prestwick Library Screening Results, P. aeruginosa (fold increase in extracellular AK activity)) it was 0.5. The fold induction at 50 µM in the assay with E. coli (50 μM final drug concentration, cutoff for positive-scoring molecules 3-fold increase, read-out: AK-based Prestwick Library Screening Results, E. coli (fold increase in extracellular AK activity)) is 0.7.
For `CN[C@H]1CC[C@@H](c2ccc(Cl)c(Cl)c2)c2ccccc21` [Sertraline], the fold induction at 50 µM in the assay with E. faecium (planktonic E. faecium, 50 μM final drug concentration, positive cutoff 3-fold increase, read-out: AK-based Prestwick library screening result, E. faecium (fold increase in extracellular AK activity)) is 1.1; in the assay with E. cloacae (planktonic E. cloacae, 50 μM final drug concentration, positive cutoff 3-fold increase, read-out: AK-based Prestwick library screening result, E. cloacae (fold increase in extracellular AK activity)) it was 1.5; in assay [1] (planktonic S. aureus, 50 μM final drug concentration, positive cutoff 3-fold increase, read-out: AK-based Prestwick library screening result, S. aureus (fold increase in extracellular AK activity)), 1.6; in assay [2] (planktonic A. baumannii, 50 μM final drug concentration, positive cutoff 3-fold increase, read-out: AK-based Prestwick library screening result, A. baumannii (fold increase in extracellular AK activity)) it was 2.9; with K. pneumoniae (planktonic K. pneumoniae, 50 μM final drug concentration, positive cutoff 3-fold increase, read-out: AK-based Prestwick library screening result, K. pneumoniae (fold increase in extracellular AK activity)) it was 1.4; in the assay on P. aeruginosa (planktonic P. aeruginosa, 50 μM final drug concentration, positive cutoff 3-fold increase, read-out: AK-based Prestwick library screening result, P. aeruginosa (fold increase in extracellular AK activity)), 1.2. Also, the fold induction at 50 µM in the assay with E. coli (planktonic E. coli, 50 μM final drug concentration, positive cutoff 3-fold increase, read-out: AK-based Prestwick library screening result, E. coli (fold increase in extracellular AK activity)) is 1.6.
On to `CCC(C)(C)C(=O)O[C@H]1C[C@@H](C)C=C2C=C[C@H](C)[C@H](CC[C@@H]3C[C@@H](O)CC(=O)O3)[C@H]21` [Simvastatin], for which the fold induction at 50 µM in the assay on E. faecium (read-out: AK-based Prestwick Library Screening Results, E. faecium (fold increase in extracellular AK activity)) worked out at 1; in the assay with E. cloacae (read-out: AK-based Prestwick Library Screening Results, E. cloacae (fold increase in extracellular AK activity)), 1.5; in assay [1] (read-out: AK-based Prestwick Library Screening Results, S. aureus (fold increase in extracellular AK activity)), 0.4; in assay [2] (read-out: AK-based Prestwick Library Screening Results, A. baumannii (fold increase in extracellular AK activity)), 2.5; in the assay with K. pneumoniae (read-out: AK-based Prestwick Library Screening Results, K. pneumoniae (fold increase in extracellular AK activity)), 1.2; in the assay on P. aeruginosa (read-out: AK-based Prestwick Library Screening Results, P. aeruginosa (fold increase in extracellular AK activity)), 1.1. In addition, in the assay on E. coli (read-out: AK-based Prestwick Library Screening Results, E. coli (fold increase in extracellular AK activity)), the fold induction at 50 µM was 1.6.
As for `CN[C@@H]1[C@@H](O)[C@@H](O[C@@H]2[C@@H](O)[C@H](O[C@H]3OC(CN)=CC[C@H]3N)[C@@H](N)C[C@H]2N)OC[C@]1(C)O` [Sisomicin sulfate], the fold induction at 50 µM turned out to be 0.9 in the assay on E. faecium (planktonic E. faecium, 50 μM final drug concentration, cutoff for positive-scoring molecules 3-fold increase, read-out: AK-based Prestwick Library Screening Results, E. faecium (increase in extracellular AK activity)); 1 in the assay on E. cloacae (planktonic E. cloacae, 50 μM final drug concentration, cutoff for positive-scoring molecules 3-fold increase, read-out: AK-based Prestwick Library Screening Results, E. cloacae (increase in extracellular AK activity)); 0.6 in assay [1] (planktonic S. aureus, 50 μM final drug concentration, cutoff for positive-scoring molecules 3-fold increase, read-out: AK-based Prestwick Library Screening Results, S. aureus (increase in extracellular AK activity)); 0.9 in assay [2] (planktonic A. baumannii, 50 μM final drug concentration, cutoff for positive-scoring molecules 3-fold increase, read-out: AK-based Prestwick Library Screening Results, A. baumannii (increase in extracellular AK activity)); 0.6 in the assay on K. pneumoniae (planktonic K. pneumoniae, 50 μM final drug concentration, cutoff for positive-scoring molecules 3-fold increase, read-out: AK-based Prestwick Library Screening Results, K. pneumoniae (increase in extracellular AK activity)); 0.9 in the assay on P. aeruginosa (planktonic P. aeruginosa, 50 μM final drug concentration, cutoff for positive-scoring molecules 3-fold increase, read-out: AK-based Prestwick Library Screening Results, P. aeruginosa (increase in extracellular AK activity)). Moreover, the fold induction at 50 µM in the assay on E. coli (planktonic E. coli, 50 μM final drug concentration, cutoff for positive-scoring molecules 3-fold increase, read-out: AK-based Prestwick Library Screening Results, E. coli (increase in extracellular AK activity)) was determined as 0.8.
Consider `COc1ccc2c(OC)c3ccoc3nc2c1OC` [Skimmianine], for which the fold induction at 50 µM in the assay on E. faecium (50 μM final drug concentration, planktonic, […], read-out: AK-based Prestwick Library Screening Results, E. faecium (fold increase in extracellular AK activity)) stood at 0.6; in the assay with E. cloacae (50 μM final drug concentration, planktonic, […], read-out: AK-based Prestwick Library Screening Results, E. cloacae (fold increase in extracellular AK activity)), 1.1; in assay [1] (50 μM final drug concentration, planktonic, […], read-out: AK-based Prestwick Library Screening Results, S. aureus (fold increase in extracellular AK activity)), 0.6; in assay [2] (50 μM final drug concentration, planktonic, […], read-out: AK-based Prestwick Library Screening Results, A. baumannii (fold increase in extracellular AK activity)), 0.5; in the assay on K. pneumoniae (50 μM final drug concentration, planktonic, […], read-out: AK-based Prestwick Library Screening Results, K. pneumoniae (fold increase in extracellular AK activity)) it was 0.5; with P. aeruginosa (50 μM final drug concentration, planktonic, […], read-out: AK-based Prestwick Library Screening Results, P. aeruginosa (fold increase in extracellular AK activity)) it was 0.6. For the same compound, in the assay with E. coli (50 μM final drug concentration, planktonic, […], read-out: AK-based Prestwick Library Screening Results, E. coli (fold increase in extracellular AK activity)), the fold induction at 50 µM was 0.6.

Values taken from patent US10004701B2, “Methods and compositions for treating infection” (UNIVERSITY OF ROCHESTER, priority 2012, dated 2018).
